Where a name gives a salt, the structure may show the parent alone.

The target of the assay is T1, PDE4B (human recombinant) (Homo sapiens, UniProt Q07343).
T1 construct: made in house
In words: Inhibition of PDE4B activity: SPA and/or Fluorescence Polarisation (FP) assay. The class given is biochemical. The settings on record: one reading (n=1) or average of 2 or more readings, read-out: PDE4B pIC50 (±about 0.5) (converted). How it is done: The ability of compounds to inhibit catalytic activity at PDE4B or 4D (human recombinant), PDE3 (from bovine aorta), PDE5 (human recombinant) or PDE6 (from bovine retina) can optionally be determined by Scintillation Proximity Assay (SPA) in a 96-well format.
The enzyme concentration is adjusted so that no more than 20% hydrolysis of the substrate defined below occurs in control wells without compound, during the incubation. For the PDE3, PDE4B and PDE4D assays, [5′,8-3H]Adenosine 3′,5′-cyclic phosphate (Amersham Pharmacia Biotech, code TRK.559; or Amersham Biosciences UK Ltd, Pollards Wood, Chalfont St Giles, Buckinghamshire HP8 4SP, UK) is added to give 0.05 uCi per well and about 10 nM final concentration. […] Plates containing assay mixture, suitably approx. 100 ul volume of assay mixture, are mixed on an orbital shaker for 5 minutes and incubated at ambient temperature for 1 hour. Phosphodiesterase SPA beads (Amersham Pharmacia Biotech, code RPNQ 0150) are added (about 1 mg per well) to terminate the assay. Plates are sealed and shaken and allowed to stand at ambient temperature for 35 minutes to 1 hour (suitably 35 minutes) to allow the beads to settle. […] Curves are analysed using ActivityBase and XLfit (ID Business Solutions Limited, 2 Ocean Court, Surrey Research Park, Guildford, Surrey GU2 7QB, United Kingdom). Results are expressed as pIC50 values.
The ability of compounds to inhibit catalytic activity at PDE4B (human recombinant) or PDE4D (human recombinant) can optionally be determined by IMAP Fluorescence Polarisation (FP) assay (IMAP Explorer kit, available from Molecular Devices Corporation, Sunnydale, Calif., USA; Molecular Devices code: R8062) in 384-well format.
The IMAP FP assay is able to measure PDE activity in an homogenous, non-radioactive assay format. The FP assay uses the ability of immobilised trivalent metal cations, coated onto nanoparticles (tiny beads), to bind the phosphate group of Fl-AMP that is produced on the hydrolysis of fluorescein-labelled (Fl) cyclic adenosine mono-phosphate (Fl-cAMP) to the non-cyclic Fl-AMP form. […] Binding of Fl-AMP product to the beads (coated with the immobilised trivalent cations) slows the rotation of the bound Fl-AMP and leads to an increase in the fluorescence polarisation ratio of parallel to perpendicular light. Inhibition of the PDE reduces/inhibits this signal increase.
The enzyme level is set by experimentation so that reaction is linear throughout the incubation. Fluorescein adenosine 3′,5′-cyclic phosphate (from Molecular Devices Corporation, Molecular Devices code: R7091) is added to give about 40 nM final concentration (final assay volume usually ca. 20-40 ul, suitably ca. 20 ul). Plates are mixed on an orbital shaker for 10 seconds and incubated at ambient temperature for 40 minutes. IMAP binding reagent (as described above, from Molecular Devices Corporation, Molecular Devices code: R7207) is added (60 ul of a 1 in 400 dilution in binding buffer of the kit stock solution) to terminate the assay. Plates are allowed to stand at ambient temperature for 1 hour. The Fluorescence Polarisation (FP) ratio of parallel to perpendicular light is measured using an Analyst™ plate reader (from Molecular Devices Corporation). […] Curves are analysed using ActivityBase and XLfit (ID Business Solutions Limited, 2 Ocean Court, Surrey Research Park, Guildford, Surrey GU2 7QB, United Kingdom). Results are expressed as plC50 values.
In general terms: Polarisation of emitted light reports the rotation of a fluorescent probe.

T1 sequence (Q07343 1-564 isoform Q07343-2): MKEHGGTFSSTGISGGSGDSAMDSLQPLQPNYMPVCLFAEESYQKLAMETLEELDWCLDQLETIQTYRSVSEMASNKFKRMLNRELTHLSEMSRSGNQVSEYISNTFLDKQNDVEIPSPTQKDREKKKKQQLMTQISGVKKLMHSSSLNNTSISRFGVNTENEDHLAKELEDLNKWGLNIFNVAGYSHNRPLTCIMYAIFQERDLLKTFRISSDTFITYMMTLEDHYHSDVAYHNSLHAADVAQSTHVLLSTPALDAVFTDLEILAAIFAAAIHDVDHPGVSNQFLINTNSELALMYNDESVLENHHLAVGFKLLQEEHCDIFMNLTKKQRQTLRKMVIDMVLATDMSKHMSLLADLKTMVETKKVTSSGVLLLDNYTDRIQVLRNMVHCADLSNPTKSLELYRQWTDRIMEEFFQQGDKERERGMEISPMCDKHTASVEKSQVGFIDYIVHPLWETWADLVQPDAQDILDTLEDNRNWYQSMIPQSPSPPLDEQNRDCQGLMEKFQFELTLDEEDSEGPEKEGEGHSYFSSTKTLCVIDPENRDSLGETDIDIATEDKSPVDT

Take `CCc1nc2c(cnn2CC)c(NC2CCN(C(N)=O)CC2)c1CNC(=O)c1ccc(N2CCCC2=O)cc1` [Example 209, 4-({1,6-diethyl-5-[({[4-(2-oxo-1-pyrrolidinyl)phenyl]carbonyl}amino)methyl]-1H-pyrazolo[3,4-b]pyridin-4-yl}amino)-1-piperidinecarboxamide]: the IC50 is 0.01 to 0.1 nM. Next, `CCc1nc2c(cnn2CC)c(NC2CCOCC2)c1CNC(=O)c1ccccc1F` [Example 232, N-{[1,6-diethyl-4-(tetrahydro-2H-pyran-4-ylamino)-1H-pyrazolo[3,4-b]pyridin-5-yl]methyl}-2-fluorobenzamide]: 0.01 to 0.1 nM; `CCn1ncc2c(NC3CCOCC3)c(CNC(=O)c3cnc(C(C)C)nc3)c(C)nc21` [Example 347, N-{[1-ethyl-6-methyl-4-(tetrahydro-2H-pyran-4-ylamino)-1H-pyrazolo[3,4-b]pyridin-5-yl]methyl}-2-(1-methylethyl)-5-pyrimidinecarboxamide]: 0.126 to 1 nM; `CCc1nc2c(cnn2CC)c(NC2CCN(C(N)=O)CC2)c1CNC(=O)c1cccc(N2CCCC2=O)c1` [Example 247, 4-({1,6-diethyl-5-[({[3-(2-oxo-1-pyrrolidinyl)phenyl]carbonyl}amino)methyl]-1H-pyrazolo[3,4-b]pyridin-4-yl}amino)-1-piperidinecarboxamide]: 0.01 to 0.1 nM. Take `CCn1ncc2c(NC3CCOCC3)c(CNC(=O)c3cnc(C(C)(C)C)nc3)c(C)nc21` [Example 336, 2-(1,1-dimethylethyl)-N-{[1-ethyl-6-methyl-4-(tetrahydro-2H-pyran-4-ylamino)-1H-pyrazolo[3,4-b]pyridin-5-yl]methyl}-5-pyrimidinecarboxamide]: the IC50 was 0.126 to 1 nM. Then `CCc1nc2c(cnn2CC)c(NC2CCOCC2)c1CNC(=O)c1cnc(C)cn1` [Example 236, N-{[1,6-diethyl-4-(tetrahydro-2H-pyran-4-ylamino)-1H-pyrazolo[3,4-b]pyridin-5-yl]methyl}-5-methyl-2-pyrazinecarboxamide], with 0.01 to 0.1 nM; and `CCc1nc2c(cnn2CC)c(NC2CCN(C(N)=O)CC2)c1CNC(=O)c1ccco1` [Example 240, 4-[(1,6-diethyl-5-{[(2-furanylcarbonyl)amino]methyl}-1H-pyrazolo[3,4-b]pyridin-4-yl)amino]-1-piperidinecarboxamide], with 0.01 to 0.1 nM.

On to `CCc1nc2c(cnn2CC)c(NC2CCOCC2)c1CNC(=O)c1ccc(NC(C)=O)c2c1OCC2` [Example 306, 4-(acetylamino)-N-{[1,6-diethyl-4-(tetrahydro-2H-pyran-4-ylamino)-1H-pyrazolo[3,4-b]pyridin-5-yl]methyl}-2,3-dihydro-1-benzofuran-7-carboxamide], for which the IC50 was 0.01 to 0.1 nM. On to `CCc1nc2c(cnn2CC)c(NC2CCOCC2)c1CNC(=O)c1cc(S(=O)(=O)NCC2CC2)ccc1OC` [Example 183, 5-{[(cyclopropylmethyl)amino]sulfonyl}-N-{[1,6-diethyl-4-(tetrahydro-2H-pyran-4-ylamino)-1H-pyrazolo[3,4-b]pyridin-5-yl]methyl}-2-(methyloxy)benzamide], for which the IC50 was 0.01 to 0.1 nM.

As for `CCc1nc2c(cnn2CC)c(NC2CCOCC2)c1CNC(=O)NCc1ccccc1` [Example 200], the IC50 was 0.126 to 1 nM.

Consider `CCn1ncc2c(NC3CCOCC3)c(CNC(=O)c3ccc(NC(C)=O)cc3O)c(C)nc21` [Example 276, 4-(acetylamino)-N-{[1-ethyl-6-methyl-4-(tetrahydro-2H-pyran-4-ylamino)-1H-pyrazolo[3,4-b]pyridin-5-yl]methyl}-2-hydroxybenzamide], for which the IC50 was 0.01 to 0.1 nM. Next, `CCn1ncc2c(NC3CCN(C(N)=O)CC3)c(CNC(=O)c3ccc(NC(C)=O)cc3O)c(C)nc21` [Example 261, 4-({5-[({[4-(acetylamino)-2-hydroxyphenyl]carbonyl}amino)methyl]-1-ethyl-6-methyl-1H-pyrazolo[3,4-b]pyridin-4-yl}amino)-1-piperidinecarboxamide]: 0.01 to 0.1 nM; `CCc1nc2c(cnn2CC)c(NC2CCOCC2)c1CNC(=O)c1ccc(C(C)(C)C)cc1O` [Example 256, N-{[1,6-diethyl-4-(tetrahydro-2H-pyran-4-ylamino)-1H-pyrazolo[3,4-b]pyridin-5-yl]methyl}-4-(1,1-dimethylethyl)-2-hydroxybenzamide]: 0.01 to 0.1 nM. `CCn1ncc2c(NC3CCN(C(N)=O)CC3)c(CNC(=O)c3cccc4c3OCC4)c(C)nc21` [Example 270, 4-[(5-{[(2,3-dihydro-1-benzofuran-7-ylcarbonyl)amino]methyl}-1-ethyl-6-methyl-1H-pyrazolo[3,4-b]pyridin-4-yl)amino]-1-piperidinecarboxamide]: the IC50 is 0.01 to 0.1 nM. Regarding `CCc1nc2c(cnn2CC)c(NC2CCOCC2)c1CNC(=O)N1CCCC1` [Example 289, N-{[1,6-diethyl-4-(tetrahydro-2H-pyran-4-ylamino)-1H-pyrazolo[3,4-b]pyridin-5-yl]methyl}-1-pyrrolidinecarboxamide], the IC50 was 0.126 to 1 nM. Then `CCn1ncc2c(NC3CCOCC3)c(CNC(=O)c3cccnc3)c(C)nc21` [Example 125, N-{[1-ethyl-6-methyl-4-(tetrahydro-2H-pyran-4-ylamino)-1H-pyrazolo[3,4-b]pyridin-5-yl]methyl}-3-pyridinecarboxamide], with 0.126 to 1 nM; and `CCn1ncc2c(NC3CCN(C(N)=O)CC3)c(CNC(=O)c3ccc(S(C)(=O)=O)cc3)c(C)nc21` [Example 259, 4-({1-ethyl-6-methyl-5-[({[4-(methylsulfonyl)phenyl]carbonyl}amino)methyl]-1H-pyrazolo[3,4-b]pyridin-4-yl}amino)-1-piperidinecarboxamide], with 0.126 to 1 nM; and `CCc1nc2c(cnn2CC)c(NC2CCOCC2)c1CNC(=O)C1CCCO1` (centres unmarked) [Example 156, N-{[1,6-diethyl-4-(tetrahydro-2H-pyran-4-ylamino)-1H-pyrazolo[3,4-b]pyridin-5-yl]methyl}tetrahydro-2-furancarboxamide], with 0.126 to 1 nM.

Consider `CCc1nc2c(cnn2CC)c(NC2CCN(C(N)=O)CC2)c1CNC(=O)c1ccc(C(C)(C)C)cc1O` [Example 302, 4-({5-[({[4-(1,1-dimethylethyl)-2-hydroxyphenyl]carbonyl}amino)-methyl]-1,6-diethyl-1H-pyrazolo[3,4-b]pyridin-4-yl}amino)-1-piperidine-carboxamide Formate], for which the IC50 was 0.01 to 0.1 nM. As to `CCn1ncc2c(NC3CCOCC3)c(CNC(=O)c3ccc4c(=O)[nH][nH]c4c3)c(C)nc21` [Example 286, N-{[1-ethyl-6-methyl-4-(tetrahydro-2H-pyran-4-ylamino)-1H-pyrazolo[3,4-b]pyridin-5-yl]methyl}-3-oxo-2,3-dihydro-1H-indazole-6-carboxamide], the IC50 is 0.126 to 1 nM. With `CCc1nc2c(cnn2CC)c(NC2CCOCC2)c1CNC(=O)c1ccc(C(F)(F)F)o1` [Example 323, N-{[1,6-diethyl-4-(tetrahydro-2H-pyran-4-ylamino)-1H-pyrazolo[3,4-b]pyridin-5-yl]methyl}-5-(trifluoromethyl)-2-furancarboxamide], the IC50 was 0.01 to 0.1 nM.

As to `CCc1nc2c(cnn2CC)c(NC2CCOCC2)c1CNC(=O)c1csc(C(F)(F)F)n1` [Example 339, N-{[1,6-diethyl-4-(tetrahydro-2H-pyran-4-ylamino)-1H-pyrazolo[3,4-b]pyridin-5-yl]methyl}-2-(trifluoromethyl)-1,3-thiazole-4-carboxamide], the IC50 is 0.01 to 0.1 nM. Then `CCc1nc2c(cnn2CC)c(NC2CCOCC2)c1CNC(=O)c1ccc(NC(C)=O)cc1` [Example 194, 4-(acetylamino)-N-{[1,6-diethyl-4-(tetrahydro-2H-pyran-4-ylamino)-1H-pyrazolo[3,4-b]pyridin-5-yl]methyl}benzamide], with 0.01 to 0.1 nM.
